Patent US20050009886A1, “1,4-Dihydropyridine derivative with a guaiacoxypropanolamine and/or phenoxypropanolamine moiety” (priority 1998, published 2005)

Experiments:
β-adrenoreceptor (β1) [1] = biological target: T1, β-adrenoreceptor (β1) (Rattus norvegicus, UniProt P18090); assay: Isolated right atrium, L-isoproterenol-induced heart rate increase (pA2); set-up: species or system Wistar rat; conditions: for β1/β2: from pA2 difference right atrium vs tracheal; for β1 Right Atrium (Slope): slope of Schild regression; for β1 Value of pA2 Right Atrium: vs L-isoproterenol, Schild plot
T1 construct: The right and left atria were then separated; from tissue; host or cells: isolated rat right atrium (spontaneously beating) and left atrium (electrically paced)
Method: The right and left atria were then separated. The spontaneously-beating right atria was clipped on both end by heart shaped clips, where one end was fixed at the bottom of 10 ml of tissue bath made of physiological saline solution, and temperature maintained at 37° C. The other end of the atria was connected to a force transducer, and isometric contractions and beating rate of the right atria were recorded by COULBOURN AT-High-Speed VideoFigure. After the samples were given 250 mg of contractions and reach equilibrium the following experiments were carried out: • (a) β-adrenoceptor blocking action
Cumulative administration interval was when the previous concentration reached its greatest effect, the next concentration would be immediately given.
The equation is as follows: pA2=−Log KB Log(DRADJ−1)=nlog[B]−LogKB [formula]
[B] Test compound concentration in moles • KB: equilibrium dissociation constant • n: value of slope DR: test EC50 divided by control EC50 • CF: EC50 of second or third control groups divided by EC50 of first control group (c) Effect of Compound on the Increase of Spontaneous Beating in Right Atrium Caused by CaCl2

β2-adrenoceptor = biological target: T2, β2-adrenoceptor (Cavia porcellus, UniProt Q8K4Z4); assay: Direct effect (intrinsic sympathomimetic activity) on reserpine pretreated isolated tracheal; set-up: species or system guinea pig; conditions: cumulative 10^−10˜3×10^−6 M, reserpine pretreated tracheal
T2 construct: a portion of tracheal approximately 4 cm long was removed; from tissue; host or cells: isolated trachea of reserpine-pretreated guinea pigs
Method: 18˜24 hours before the experiment, 5 mg/kg of reserpine was injected via abdominal cavity to remove all endogenous catecholamines. Prior experiment, guinea pigs were sacrificed, the tracheal was immediately removed and placed in Kreb's solution aerated with air mixture and maintained at room temperature of 22˜25° C. […] Then the tissue was repeatedly washed with Kreb's solution.

isolated atria = assay: Direct effect (intrinsic sympathomimetic activity) on reserpine pretreated isolated atria; set-up: species or system Wistar rat; conditions: for direct effect on right atrium beating rate and left atrium isometric contractions: cumulative administration, reserpine pretreated
Method: Wistar rats of weight between 200˜300 gm were used. 18˜24 hours before the experiment, 5 mg/kg of reserpine was injected via abdominal cavity to remove all endogenous catecholamines. Prior experiment, Wistar rats were sacrificed, the heart was immediately removed and placed in Kreb's solution aerated with air mixture and maintained at room temperature. The right and left atria were carefully separated.

[2] = Heart rate and blood pressure in living rat; type: in vivo, Wistar rats; conditions: 1 mg/kg via femoral vein, anaesthetized rat
Description: Male Wistar rats, weighing 200˜300 g were abdominal anaesthetized with pentobarbital sodium. Tracheal was cannulated to maintain normal respiration. Polyethylene tube was inserted into the left femoral vein to facilitate drug administration. A 3-way stopcock was used, with one end connected to a syringe for drug injection, while the other end was connected to the syringe filled with physiological saline. The latter was used to prevent residual drugs in the polyethylene tube after injection, which would affect experimental accuracy.
The right femoral artery was also inserted with polyethylene, and a 3-way stopcock was used too, where one end was connected to heparin solution to prevent embolism. The other end was connected to a Disposable Diaphragm Dome, TA1019, and linked to a transducer. Through an amplifier, a recorder recorded the overall and average arterial pressure; heart rate to evaluate the effect of drug on blood pressure and heart rate.

β-adrenoreceptor (β1) [3] = biological target: T1, β-adrenoreceptor (β1); assay: Isolated left atrium, L-isoproterenol-induced contractility increase (pA2); set-up: species or system Wistar rat; conditions: for β1 Left Atrium (Slope): slope of Schild regression; for β1 Value of pA2 Left Atrium: vs L-isoproterenol, electrically stimulated
Method: The inspontaneously-beating left atrial tissue was obtained from rat's isolated right atrial tissue experiments. […] The contraction rate was 1 Hz and the resting tension 0.5 gm. After 60 minutes of equilibration, the following experiments were performed:
(a) Completion of cumulative concentration-response curve: similar to experimental method on isolated right atrium;
(b) Calculation of pA2 value: similar to calculation method on isolated right atrium.

β2 = biological target: T3, β2 (Cavia porcellus, UniProt Q8K4Z4); assay: Guinea pig's isolated tracheal, L-isoproterenol relaxation of carbachol contraction (pA2); conditions: for β2 Tracheal (slope): slope of Schild regression; for β2 Value of pA2 Tracheal: vs L-isoproterenol, carbachol 10^−6 M contraction
T3 construct: a portion of tracheal approximately 4 cm long was removed; from tissue; host or cells: isolated trachea of reserpine-pretreated guinea pigs
Method: Guinea pigs of weight between 300˜500 gm were used. […] After the guinea pigs were sacrificed, a slit was made along the neck, and a portion of tracheal approximately 4 cm long was removed. […] The two ends of the tracheal were clamped with frog-heart shaped clamps, one end was fixed at the bottom of tissue bath filled with 20 ml of Kreb's solution, maintained at 37° C., while the other end was connected to a force transducer. Through a COULBOURN AT-High-Speed Videograph, long isometric contractions were recorded. After the sample was given 1.5 gm of tension and equilibrated, the following experiments were performed:
Then the tracheal was repeatedly washed with Kreb's solution for 20 minutes and 10−6 M of carbochol was added to cause contraction in the guinea pig's tracheal. […] This is the test group.
(b) Calculation of pA2: similar to the calculation method for isolated right atrium experiment.

thoracic aorta = assay: Isolated thoracic aorta contraction caused by 75 mM KCl; set-up: species or system Wistar rat; conditions: 10^−8M; 75 mM KCl contraction
Method: After sacrificing Wistar rat of weight between 300-500 gm, the thoracic aorta was immediately removed and placed in cold Kreb's solution. The fatty connecting tissue surrounding the vessel wall was removed and the thoracic aorta was cut into rings of length 5 mm. The two ends of each ring was pieced and fixed with “Z” shaped platinum wires. […] The sample was given 1 gm of tension and equilibrated for 60 minutes before the following experiments were carried out:
After thoracic aorta had reached equilibrium in the tissue trough, the normal Kreb's solution in the trough was replaced with 75 mM KCl solution to induce vasoconstriction. When the results had been recorded for at least 35 minutes, the aorta was repeatedly rinsed with normal Kreb's solution. After the aorta had re-equilibrated and at least rested for 60 minutes, different concentrations (10^−8, 10^−7, 10^−6, and 10^−5M) of compound 1 were separately added. 30 minutes later, 75 mM KCl was added again to induce vasoconstriction. This method was used to compare the differences in contraction induced by 75 mM KCl on thoracic aorta pre-treated and non-treated with compound 1.
0.1 μM of BayK8644 was first added into the tissue trough. 10 minutes later, 75 mM of concentrated Potassium solution was added to induce thoracic aorta contraction. When vasoconstriction had reached stability, different concentrations of (10^−8, 10^−7, 10^−6, and 10^−5M) compound 1 were separately added. The effects of aorta contraction induced by concentrated Potassium solution were observed.

Calcium = Calcium antagonism (pKCa^−1, Table 2)

T1 sequence (P18090 whole entry): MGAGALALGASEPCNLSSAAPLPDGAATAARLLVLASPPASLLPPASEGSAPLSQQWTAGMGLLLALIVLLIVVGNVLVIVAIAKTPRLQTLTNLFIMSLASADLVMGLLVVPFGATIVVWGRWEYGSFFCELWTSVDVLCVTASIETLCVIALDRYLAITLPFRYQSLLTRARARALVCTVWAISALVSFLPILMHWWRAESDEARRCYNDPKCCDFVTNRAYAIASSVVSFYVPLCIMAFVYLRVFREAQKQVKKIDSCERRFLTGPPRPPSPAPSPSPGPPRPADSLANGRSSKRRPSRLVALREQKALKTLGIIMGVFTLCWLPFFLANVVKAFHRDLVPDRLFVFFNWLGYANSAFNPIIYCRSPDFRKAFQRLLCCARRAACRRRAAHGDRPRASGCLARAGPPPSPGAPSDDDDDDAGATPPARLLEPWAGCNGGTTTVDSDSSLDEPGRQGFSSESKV
T3 sequence (Q8K4Z4 whole entry): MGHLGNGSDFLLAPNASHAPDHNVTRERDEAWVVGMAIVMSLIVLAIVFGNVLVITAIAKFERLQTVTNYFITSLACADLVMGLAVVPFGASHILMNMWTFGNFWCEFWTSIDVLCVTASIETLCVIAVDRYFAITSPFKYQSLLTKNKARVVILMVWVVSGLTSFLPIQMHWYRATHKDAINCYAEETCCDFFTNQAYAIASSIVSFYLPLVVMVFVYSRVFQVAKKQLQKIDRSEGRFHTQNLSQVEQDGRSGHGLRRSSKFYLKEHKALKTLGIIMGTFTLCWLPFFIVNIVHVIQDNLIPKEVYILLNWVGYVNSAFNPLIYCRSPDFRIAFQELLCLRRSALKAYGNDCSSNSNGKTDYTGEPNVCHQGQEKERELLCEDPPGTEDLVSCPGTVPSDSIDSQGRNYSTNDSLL
T2 sequence (Q8K4Z4 whole entry): as above

| SMILES | effect on right atrium relative to tracheal (selectivity ratio of β1 type adrenoceptor) (β-adrenoreceptor (β1) [1]; from average pA2 difference between right atrium and tracheal) [×] | selectivity on the type of β-adrenoceptor (β-adrenoreceptor (β1) [1]; β1:β2) | direct tracheal relaxation effect (β2-adrenoceptor) | direct effect on right atrium beating rate and left atrium isometric contractions (isolated atria) | atrial blocking effect (isolated atria; 3×10−4M) | Lowering of Blood Pressure [2] [mmHg] | Reduction of Heart Rate [2] [beats/min] | Ratio of β1 and Calcium Antagonism (β-adrenoreceptor (β1) [1]) | β1/β2 (β-adrenoreceptor (β1) [1]) | β1 Right Atrium (Slope) (β-adrenoreceptor (β1) [1]) | β1 Value of pA2 Right Atrium (β-adrenoreceptor (β1) [1]) | β1 Left Atrium (Slope) (β-adrenoreceptor (β1) [3]) | β1 Value of pA2 Left Atrium (β-adrenoreceptor (β1) [3]) | β2 Tracheal (slope) (β2) | β2 Value of pA2 Tracheal (β2) | Aorta Relaxation (thoracic aorta) [%] | Calcium Antagonism PKCa^−1 (Calcium) |
| --- | --- | --- | --- | --- | --- | --- | --- | --- | --- | --- | --- | --- | --- | --- | --- | --- | --- |
| COc1cc(C=O)ccc1OCC(O)CNC(C)(C)C (stereo not drawn) [Vanidilol, reference compound] | 0.98 | non-selective | dose-dependant tracheal relaxation effect |  |  |  |  |  |  |  |  |  |  |  |  |  |  |
| CC(C)NCC(O)COc1cccc2ccccc12 (stereo not drawn) [Propranolol] |  |  |  | could retard the beating rate and isometric contractions |  |  |  |  |  |  |  |  |  |  |  |  |  |
| CC(C)NC[C@H](O)c1ccc(O)c(O)c1 [L-isoproterenol] |  |  |  | dose-dependently increase the right atrium beating rate and left atrium isometric contractions |  |  |  |  |  |  |  |  |  |  |  |  |  |
| CC(C)NCC(O)COc1ccc(CC(N)=O)cc1 (stereo not drawn) [atenolol] |  |  |  |  | almost does not have atrial blocking effect |  |  |  |  |  |  |  |  |  |  |  |  |
| CCOC(=O)C1=C(C)NC(C)=C(C(=O)OCC)C1c1cc(Cl)ccc1OCC(O)CNCCOc1ccccc1OC (stereo not drawn) [Compound 6] |  |  |  |  |  | 80 ± 3 | 35 ± 5 | 0.11 | 1.29 | (0.88 ± 0.12) | 7.41 ± 0.34 | (0.91 ± 0.09) | 7.01 ± 0.28 | (0.90 ± 0.19) | 7.31 ± 0.19 | 45 ± 4 | 8.01 ± 0.45 |
| CCOC(=O)C1=C(C)NC(C)=C(C(=O)OCC)C1c1ccc(OCC(O)CNCCOc2ccccc2OC)c(Cl)c1 (stereo not drawn) [Compound 7, 4-{{N-{4-[2-hydroxy-3-(2-methoxy-1-oxyethyl-aminobenzene)propoxy]-3-choloro}phenyl} }-2,6-dimethyl-3,5-dicarbo-ethoxy-1,4-dihydropyridine] |  |  |  |  |  | 82 ± 6 | 40 ± 2 | 0.07 | 1.34 | (0.91 ± 0.08) | 7.77 ± 0.34 | (0.88 ± 0.27) | 6.97 ± 0.29 | (0.89 ± 0.21) | 7.28 ± 0.21 | 45 ± 5 | 8.06 ± 0.27 |
| CCOC(=O)C1=C(C)NC(C)=C(C(=O)OCC)C1c1cc(Cl)ccc1OCC(O)CNC(C)(C)C (stereo not drawn) [Compound 4] |  |  |  |  |  | 76 ± 6 | 33 ± 3 | 0.08 | 1.31 | (0.83 ± 0.12) | 7.38 ± 0.12 | (0.92 ± 0.12) | 6.90 ± 0.35 | (0.87 ± 0.18) | 7.27 ± 0.32 | 35 ± 5 | 7.94 ± 0.56 |
| CCOC(=O)C1=C(C)NC(C)=C(C(=O)OCC)C1c1cc([N+](=O)[O-])ccc1OCC(O)CNCCOc1ccccc1OC (stereo not drawn) [Compound 9] |  |  |  |  |  | 85 ± 6 | 40 ± 5 | 0.07 | 1.30 | (0.88 ± 0.09) | 7.78 ± 0.12 | (0.91 ± 0.18) | 7.12 ± 0.09 | (0.88 ± 0.23) | 7.33 ± 0.24 | 47 ± 2 | 8.12 ± 0.32 |
